Patent publication US20030113810A1, “Novel assay” (priority 2000, published 2003)

Legend:
human GPR41 = molecular target: T1, human GPR41 (Homo sapiens, UniProt O14843); conditions: membranes of HEK293T cells, human GPR41 + Go1α; FIG. 2-4
T1 sequence (O14843 1-346): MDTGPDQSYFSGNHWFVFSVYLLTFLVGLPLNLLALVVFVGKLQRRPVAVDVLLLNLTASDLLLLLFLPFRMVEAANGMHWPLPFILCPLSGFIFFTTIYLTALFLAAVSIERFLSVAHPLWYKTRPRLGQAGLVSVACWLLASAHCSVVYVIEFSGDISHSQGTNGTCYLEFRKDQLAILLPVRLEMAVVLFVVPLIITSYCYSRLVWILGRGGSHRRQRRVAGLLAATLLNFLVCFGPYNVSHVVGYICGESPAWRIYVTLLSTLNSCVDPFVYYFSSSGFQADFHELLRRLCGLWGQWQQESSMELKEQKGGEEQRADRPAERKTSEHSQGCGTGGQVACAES
Method: HEK293T cells (HEK293 cells stably expressing the SV40 large T-antigen) were maintained in DMEM containing 10% (v/v) foetal calf serum and 2 mM glutamine. Cells were seeded in 60 mm culture dishes and grown to 60-80% confluency (18-24 h) prior to transfection with pCDNA3 containing the relevant DNA species using Lipofectamine reagent. For transfection, 3 μg of DNA was mixed with 10 μl of Lipofectamine in 0.2 ml of Opti-MEM (Life Technologies Inc.) and was incubated at room temperature for 30 min prior to the addition of 1.6 ml of Opti-MEM. Cells were exposed to the Lipofectamine/DNA mixture for 5 h and 2 ml of 20% (v/v) newborn calf serum in DMEM was then added. Cells were harvested 48-72 h after transfection.
Plasma membrane-containing P2 particulate fractions were prepared from cell pastes frozen at −80° C. after harvest. All procedures were carried out at 4° C. Cell pellets were resuspended in 1 ml of 10 mM Tris-HCl and 0.1 mM EDTA, pH 7.5 (buffer A) and by homogenisation for 20 s with a polytron homogeniser followed by passage (5 times) through a 25-guage needle. Cell lysates were centrifuged at 1,000 g for 10 min in a microcentrifuge to pellet the nuclei and unbroken cells and P2 particulate fractions were recovered by microcentrifugation at 16,000 g for 30 min. P2 particulate fractions were resuspended in buffer A and stored at −80° C. until required. Protein concentrations were determined using the bicinchoninic acid (BCA) procedure (4) using BSA as a standard.
Assays were performed in 96-well format using a method modified from Wieland and Jakobs, 1994. Membranes (10 μg per point) were diluted to 0.083 mg/ml in assay buffer (20 mM HEPES, 100 mM NaCl, 10 mM MgCl2, pH7.4) supplemented with saponin (10 mg/l) and pre-incubated with 40 μM GDP. […] Non-specific binding was determined by the inclusion of 0.6 mM GTP. […] Plates were centrifuged at 1500 g for 5 min and bound [^35S]GTPγS was determined by scintillation counting on a Wallac 1450 microbeta Trilux scintillation counter.

rGPR41 [1] = molecular target: T2, rGPR41 (Rattus norvegicus, UniProt B2GV46); assay: Yeast FUS1-lacZ/FUS1-HIS3 reporter assay, rGPR41 in S. cerevisiae MMY22 (Gpa1/Gαo), FDG substrate; format: cell-based; set-up: expressed in transfected cells; host or cells: S. cerevisiae MMY22 (A1, A5; Gpa1/Gαo integrated) or MMY11 + pRS314-Gpa1/Gαo (A4), transformed with p426GPD-rGPR41; conditions: for EC50: read-out: Agonism @ rGPR41 Approx. EC50; for relative agonist activity at rGPR41 (in words): yeast MMY22, carboxylic acid series C1-C12, FIG. 8
T2 sequence (B2GV46 1-319): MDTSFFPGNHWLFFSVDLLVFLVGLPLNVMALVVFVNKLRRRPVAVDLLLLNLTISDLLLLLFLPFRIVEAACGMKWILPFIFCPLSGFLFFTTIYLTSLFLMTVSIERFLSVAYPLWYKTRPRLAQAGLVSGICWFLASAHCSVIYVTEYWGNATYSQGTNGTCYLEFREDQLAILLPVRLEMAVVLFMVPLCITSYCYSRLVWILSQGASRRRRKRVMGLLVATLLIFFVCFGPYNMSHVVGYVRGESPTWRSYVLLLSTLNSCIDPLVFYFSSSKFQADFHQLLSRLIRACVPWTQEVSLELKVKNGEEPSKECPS
Method: A study was carried out of the function of rGPR41 following expression in S. cerevisiae MMY22, which is a derivative of S. cerevisiae MMY11 containing a copy of the gene encoding the Gpa1/Gαo transplant chimera described above (in which the 5 C-terminal amino acids of Gpa1 are replaced with the 5 C-terminal amino acids of Gαo) integrated into the genome. To do this, a cassette comprising the GPA1 promoter, nucleotide sequence encoding Gpa1/Gαo, and the terminator was sub-cloned from pRS314-Gpa1/Gαo into the yeast integrating plasmid pRS304 (Sikorski and Hieter, 1989). The resulting plasmid pRS304-Gpa1/Gαo was transformed into MMY11 and integrated into the trp1 locus creating MMY22.
The rGPR41 expression construct described above, p462GPD-rGPR41 was introduced into MMY22 by transformation as described above. Four separate transformants were tested for reporter gene activation in response to propionate. Assays for FUS1-lacZ and FUS1-HIS3 induction were performed as described, except the β-galactosidase (lacZ) substrate fluorescein di-β-D-galactopyranoside (FDG) was used in place of CPRG, and 3-aminotriazole concentration was 5 mM. Also, black-walled 96-well microtitre plates were used, and fluorescence resulting from degradation of FDG to fluorescein due to β-galactosidase was determined using a Spectrofluor microtitre plate reader (Tecan)(excitation wavelength: 485 nm; emmision wavelength: 535 nm).
A series of carboxylic acids and other compounds related to propionate were tested for the ability to activate rGPR41. Experiments were performed as described above, using yeast cells of strain MMY22 transformed with rGPR41 expression plasmid p462GPD-rGPR41, except that the agonist propionate was replaced with one of a series of other compounds, which are listed in table 2 below.
(§1) In vivo assays of reporter gene induction were carried out by suspending MMY11 cells transformed as described above to a density of 0.02 OD600/ml in 200 μl SC-glucose (2%) medium lacking tryptophan, uracil and histidine. This medium was supplemented with 10 mM 3-aminotriazole and the β-galactosidase (lacZ) substrate chlorophenolred-β-D-galactopyranoside (CPRG; Boehringer Mannheim) to a concentration of 0.1 mg/ml. Additionally the medium was supplemented with various concentrations of the agonist ligand, propionate (sodium propionate, pH 7.0). To visualise the yellow to red colour change reaction occurring on degradation of CPRG due to β-galactosidase, the medium was buffered to pH 7 with 0.1 M sodium phosphate. The assay was conducted in flat-bottomed sterile 96-well microtitre plates. Plates were incubated for 24 hours at 30° C. without agitation, and absorbance at 570 nm was determined using a Spectrofluor microtitre plate reader (Tecan).

rGPR41 [2] = molecular target: T2, rGPR41; assay: Yeast reporter assay, rGPR41 in MMY22, CPRG substrate (3-hydroxybutyrate study); format: cell-based; set-up: expressed in transfected cells; host or cells: S. cerevisiae MMY22 (A1, A5; Gpa1/Gαo integrated) or MMY11 + pRS314-Gpa1/Gαo (A4), transformed with p426GPD-rGPR41; conditions: for agonism at rGPR41 (in words): FIG. 9
Method: A study was made of the agonism of rGPR41 by the naturally-occurring ketone body compound, 3-hydroxybutyrate. Experiments were performed as described above, using yeast cells of strain MMY22 transformed with rGPR41 expression plasmid p462GPD-rGPR41, except that the substrate CPRG was used. Also, the agonist propionate was replaced with 3-hydroxybutyrate (β-hydroxybutyrate), either as a racemic mix of both stereoisomers, or as purified enantiomers D-3-hydroxybutyrate, or L-3-hydroxybutyrate.
as §1

[3] = yeast MMY22 with p462GPD-rGPR41, FDG fluorescence, compounds as salt solutions buffered to pH 7.0

Row | Compound | Agonism @ rGPR41 Approx. EC50 (M) (rGPR41 [1]; [3]) | other results
1 | CC(O)CC(=O)O (racemic) [DL-b-Hydroxybutyrate] | – | stimulation of [35S]GTPγS binding (human GPR41): elevate [^35S]GTPγS binding; EC50 (rGPR41 [1]; [3]): ~10000 µM; agonism at rGPR41 (in words) (rGPR41 [2]): agonist at rGPR41 with a potency similar or slightly less than acetate; lowest concentrations causing detectable activation of rGPR41 (threshold) (rGPR41 [2]; FIG. 9, listed as 3-hydroxybutyrate): approximately 1 mM
2 | C=CCCC(=O)O [4-pentenoate] | – | EC50 (rGPR41 [1]; [3]): ~30 µM
3 | CC(=O)CC(=O)O [Acetoacetate] | weak active | –
4 | CC(C)=O [Acetone] | – | Agonism @ rGPR41 Approx. EC50 (M) (rGPR41 [1]; pH 7): Inactive
5 | C[C@H](N)C(=O)O [Alanine] | Inactive | –
6 | O=C1O[C@H]([C@@H](O)CO)C(O)=C1O [Ascorbate] | Inactive | –
7 | CCCCCC(=O)O [Caproic C6 acid] | – | EC50 (rGPR41 [1]; [3]): ~30 µM
8 | CCCCCCCC(=O)O [Caprylic C8 acid] | weak active | –
9 | O=C(O)CC(O)(CC(=O)O)C(=O)O [Citrate] | Inactive | relative agonist activity at rGPR41 (in words) (rGPR41 [1]): either inactive or had very weak activities
10 | C[C@@H](O)CC(=O)O [D-b-Hydroxybutyrate] | – | EC50 (rGPR41 [1]; [3]): ~10000 µM; agonism at rGPR41 (in words) (rGPR41 [2]): similarly active to the racemic mix DL-3-hydroxybutyrate
11 | CCCCCCCCCC(=O)O [Decanoic C10 acid] | inactive/toxic | relative agonist activity at rGPR41 (in words) (rGPR41 [1]): inactive
12 | O=CO [Formate] | – | Agonism @ rGPR41 Approx. EC50 (M) (rGPR41 [1]; pH 7): Weak active
13 | O=C(O)/C=C/C(=O)O [Fumarate] | Inactive | relative agonist activity at rGPR41 (in words) (rGPR41 [1]): either inactive or had very weak activities
14 | NCCCC(=O)O [GABA] | Inactive | –
15 | N[C@@H](CCC(=O)O)C(=O)O [Glutamate] | Inactive | –
16 | NCC(=O)O [Glycine] | Inactive | –
17 | O=CC=O [Glyoxal] | – | Agonism @ rGPR41 Approx. EC50 (M) (rGPR41 [1]; pH 7): Toxic
18 | O=CC(=O)O [Glyoxylic acid] | – | EC50 (rGPR41 [1]; [3]): ~50000 µM
19 | CCCCCCC(=O)O [Heptanoic C7 acid] | – | EC50 (rGPR41 [1]; [3]): ~100 µM
20 | CC(C)C(=O)O [Isobutyrate] | – | EC50 (rGPR41 [1]; [3]): ~30 µM
21 | C[C@H](O)CC(=O)O [L-b-Hydroxybutyrate] | – | EC50 (rGPR41 [1]; [3]): ~10000 µM
22 | CCCCCCCCCCCC(=O)O [Lauric C12 acid] | inactive/toxic | relative agonist activity at rGPR41 (in words) (rGPR41 [1]): inactive
23 | CCCCC/C=C\C/C=C\CCCCCCCC(=O)O [Linoleic acid] | Toxic/Inactive | –
24 | CN[C@H](CC(=O)O)C(=O)O [NMDA] | Inactive | –
25 | CCCCCCCCC(=O)O [Nonanoic C9 acid] | inactive/toxic | relative agonist activity at rGPR41 (in words) (rGPR41 [1]): inactive
26 | O=C(O)C(=O)O [Oxalate] | – | EC50 (rGPR41 [1]; [3]): ~3000 µM

Row | Compound | Agonism @ rGPR41 Approx. EC50 (M) (rGPR41 [1]; [3]) | other results
27 | O=C(O)CC(=O)C(=O)O [Oxaloacetate] | Inactive | –
28 | CCCCCC/C=C\CCCCCCCC(=O)O [Palmitoleic acid] | Toxic/inactive | –
29 | CCCCC(=O)O [Pentanoate (n-valerate)] | – | relative agonist activity at rGPR41 (in words) (rGPR41 [1]): similarly or slightly more active than propionate; EC50 (rGPR41 [1]; [3]): ~3 µM
30 | O=C(O)CCC(=O)O [Succinate] | Inactive | relative agonist activity at rGPR41 (in words) (rGPR41 [1]): either inactive or had very weak activities
31 | O=C(O)C(O)C(O)C(=O)O (stereo not drawn) [Tartrate] | Inactive | –
32 | O=C(O)C(F)(F)F [Trifluoroacetate] | weak active | –
33 | CCCCCCCCCCC(=O)O [Undecanoic C11 acid] | inactive/toxic | relative agonist activity at rGPR41 (in words) (rGPR41 [1]): inactive
34 | CC(N)=O [acetamide] | very weak active | –
35 | CCC(O)C(=O)O (stereo not drawn) [alpha-hydroxybutyrate] | Inactive | –
36 | O=C(O)c1ccccc1 [benzoate] | – | Agonism @ rGPR41 Approx. EC50 (M) (rGPR41 [1]; pH 7): Toxic
37 | O=C(O)CO [glycolate] | weak active | –
38 | CC(O)C(=O)O (stereo not drawn) [lactate] | Inactive | –
39 | O=C(O)/C=C\C(=O)O [maleate] | Inactive | –
40 | O=C(O)CC(=O)O [malonate] | Inactive | –
41 | CS(=O)(=O)O [methylsulphonate] | Inactive | –
42 | CCCC(=O)O [n-Butyrate] | – | EC50 (rGPR41 [1]; [3]): ~50 µM
43 | O=C(O)c1cccnc1 [nicotinic acid] | – | Agonism @ rGPR41 Approx. EC50 (M) (rGPR41 [1]; pH 7): Inactive
44 | CCCCCCCC/C=C\CCCCCCCC(=O)O [oleate] | Inactive | –
45 | CCCCCCCCCCCCCCCC(=O)O [palmitate] | Inactive | –
46 | CC(C)(C)C(=O)O [pivalic acid] | – | EC50 (rGPR41 [1]; [3]): ~500 µM
47 | CC(=O)C(=O)O [pyruvate] | Inactive | –
48 | CCCCCCCCCCCCCCCCCC(=O)O [stearate] | Inactive | –
49 | C/C=C(\C)C(=O)O [tiglic acid] | Inactive | –
50 | O=C(O)CCCO [γ-hydroxybutyrate] | – | EC50 (rGPR41 [1]; [3]): ~10000 µM
51 | methyl-2-imidazoline | Toxic/inactive | –
